Each molecule was assayed against T1, PLK1 (Homo sapiens, UniProt P53350) (assay: Biochemical Characterization Assay B (peptide substrate, LABCHIP EZ Reader II)). Conditions: PLK1, peptide RRRAGALMDASFEEQ-CONH2, % conversion on LABCHIP EZ Reader II.
T1 construct: Full-length, active GST-Plk1 was purified from Sf9 insect cells; GST (N); made in house; host or cells: Sf9 insect cells
T1 sequence (P53350 whole entry): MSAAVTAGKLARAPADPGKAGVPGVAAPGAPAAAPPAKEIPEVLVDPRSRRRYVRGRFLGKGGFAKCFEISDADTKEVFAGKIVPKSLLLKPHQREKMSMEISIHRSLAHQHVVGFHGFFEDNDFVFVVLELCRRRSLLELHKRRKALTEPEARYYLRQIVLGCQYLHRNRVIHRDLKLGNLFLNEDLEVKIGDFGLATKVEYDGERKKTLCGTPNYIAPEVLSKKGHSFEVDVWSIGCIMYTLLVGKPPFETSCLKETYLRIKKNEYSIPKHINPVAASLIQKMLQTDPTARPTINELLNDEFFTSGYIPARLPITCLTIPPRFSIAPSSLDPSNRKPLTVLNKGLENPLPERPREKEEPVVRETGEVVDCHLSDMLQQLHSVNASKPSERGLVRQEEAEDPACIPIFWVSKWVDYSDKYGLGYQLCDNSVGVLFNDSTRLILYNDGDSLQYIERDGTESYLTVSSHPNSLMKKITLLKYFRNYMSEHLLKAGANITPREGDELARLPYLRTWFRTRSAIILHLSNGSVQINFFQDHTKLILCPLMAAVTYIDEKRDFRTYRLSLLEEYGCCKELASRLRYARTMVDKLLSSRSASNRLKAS
Procedure: Compounds were serially diluted to 6400, 2133, 711, 237, 79, 26, 8.78, 2.93, 0.98 and 0.33 μM in 100% DMSO. Diluted compound was further diluted 20 fold with Kinase Assay Buffer (KAB). Peptide RRRAGALMDASFEEQ-CONH2 (MW 2090) was diluted to 1.2 μM with KAB and ATP was added to 400 μM. PLK1 stock, prepared as described above, was diluted to 3 μg protein/mL with KAB right before it was added to MATRIX 384-Well Polypropylene Black Plates to start the reaction. 20 μL of KAB diluted compounds (or 5% DMSO in KAB for Total and Blank), 20 μL of KAB diluted peptide with ATP and 40 μL of KAB diluted PLK1 solution (KAB without PLK 1 for Blanks) were transferred to each well of the polypropylene plates. The reaction mixtures were incubated at room temperature for 40 minutes. Reactions were stopped by addition of 10 uL Reaction Stopping Buffer (RSB) to each well. Plates were then read on LABCHIP EZ Reader II from Caliper Life Science.
The IC50 values for each compound were generated using an Excel template. The % conversion readings of Total and Blank were used as 0% and 100% inhibition. The percent inhibition values of reactions in the presence of compounds were calculated, and plotted against compound concentrations. All data were fitted into a Dose Response One Site model (4 parameter logistic model) as the following: (A+4B−A)/(1+((x/C)^13)))), with A and B as the bottom and top of the curve (highest and lowest inhibition), respectively, and C as IC50 and D as Hill Coefficient of the compound.
For `CN1CCC(Oc2ccc3ncn(-c4nc(-c5cccc(Cl)c5)c(C(N)=O)s4)c3c2)CC1` [Example 22, 4-(3-Chloro-phenyl)-2-[6-(1-methyl-piperidin-4-yloxy)-benzoimidazol-1-yl]-thiazole-5-carboxylic acid amide], the IC50 was 18 nM. `CN1CCC(COc2ccc3ncn(-c4nc(-c5cccc(Cl)c5)c(C(N)=O)s4)c3c2)CC1` [Example 24, 4-(3-Chloro-phenyl)-2-[6-(1-methyl-piperidin-4-ylmethoxy)-benzoimidazol-1-yl]-thiazole-5-carboxylic acid amide] showed an IC50 of 14 nM. In the case of `COc1cc2ncn(-c3nc(-c4cccc(Cl)c4)c(C(N)=O)s3)c2cc1CN1CCN(C)CC1` [Example 46, 4-(3-Chloro-phenyl)-2-[5-methoxy-6-(4-methyl-piperazin-1-ylmethyl)-benzoimidazol-1-yl]-thiazole-5-carboxylic acid amide], the IC50 is reported as 13 nM. Molecule `COc1cc2ncn(-c3nc(-c4cccc(Cl)c4)c(C(N)=O)s3)c2cc1OCCCN1CCOCC1` [Example 43, 4-(3-Chloro-phenyl)-2-[5-methoxy-6-(3-morpholin-4-yl-propoxy)-benzoimidazol-1-yl]-thiazole-5-carboxylic acid amide] has an IC50 of 8 nM. `NC(=O)c1sc(-n2cnc3ccc(OCC4CCNCC4)cc32)nc1-c1cccc(Cl)c1` [Example 23, 4-(3-Chloro-phenyl)-2-[6-(piperidin-4-ylmethoxy)-benzoimidazol-1-yl]-thiazole-5-carboxylic acid amide] showed an IC50 of 17 nM. Molecule `NC(=O)c1sc(-n2cnc3ccc(OCCN4CCCCC4)cc32)nc1-c1cccc(Cl)c1` [Example 27, 4-(3-Chloro-phenyl)-2-[6-(2-piperidin-1-yl-ethoxy)-benzoimidazol-1-yl]-thiazole-5-carboxylic acid amide] has an IC50 of 264 nM. `CC(C)(C)OC(=O)NC(C)(C)C(=O)NC1CCN(Cc2ccc3ncn(-c4nc(-c5cccc(Cl)c5)c(C(N)=O)s4)c3c2)CC1` [Example 15, [1-(1-{3-[5-Carbamoyl-4-(3-chloro-phenyl)-thiazol-2-yl]-3H-benzoimidazol-5-ylmethyl}-piperidin-4-ylcarbamoyl)-1-methyl-ethyl]-carbamic acid tert-butyl ester] gave an IC50 of 5270 nM. For `NC(=O)c1sc(-n2cnc3ccc(OCCCCN4CCOCC4)cc32)nc1-c1cccc(Cl)c1` [Example 38, 4-(3-Chloro-phenyl)-2-[6-(4-morpholin-4-yl-butoxy)-benzoimidazol-1-yl]-thiazole-5-carboxylic acid amide], the IC50 was 11 nM. `NC(=O)c1sc(-n2cnc3ccc(OCC(O)CN4CCOCC4)cc32)nc1-c1cccc(Cl)c1` (centres unmarked) [Example 40, 4-(3-Chloro-phenyl)-2-[6-(2-hydroxy-3-morpholin-4-yl-propoxy)-benzoimidazol-1-yl]-thiazole-5-carboxylic acid amide] gave an IC50 of 13 nM. In the case of `NC(=O)c1sc(-n2cnc3ccc(OCCCNCCO)cc32)nc1-c1cccc(Cl)c1` [Example 36, 4-(3-Chloro-phenyl)-2-{6-[3-(2-hydroxy-ethylamino)-propoxy]-benzoimidazol-1-yl}-thiazole-5-carboxylic acid amide], the IC50 is reported as 80 nM. In the case of `NC(=O)c1sc(-n2cnc3ccc(CN(CCCN4CCOCC4)CCCN4CCOCC4)cc32)nc1-c1cccc(Cl)c1` [Example 49, 2-(6-{[Bis-(3-morpholin-4-yl-propyl)-amino]-methyl}-benzoimidazol-1-yl)-4-(3-chloro-phenyl)-thiazole-5-carboxylic acid amide], the IC50 is reported as 566 nM. `CN1CCN(CC(O)COc2ccc3ncn(-c4nc(-c5cccc(Cl)c5)c(C(N)=O)s4)c3c2)CC1` (centres unmarked) [Example 39, 4-(3-Chloro-phenyl)-2-{6-[2-hydroxy-3-(4-methyl-piperazin-1-yl)-propoxy]-benzoimidazol-1-yl}-thiazole-5-carboxylic acid amide] showed an IC50 of 50 nM. For `NC(=O)c1sc(-n2cnc3ccc(CN4CCC(N)CC4)cc32)nc1-c1cccc(Cl)c1` [Example 13, 2-[6-(4-Amino-piperidin-1-ylmethyl)-benzoimidazol-1-yl]-4-(3-chloro-phenyl)-thiazole-5-carboxylic acid amide], the IC50 was 37 nM. `COc1cc2ncn(-c3nc(-c4cccc(Cl)c4)c(C(N)=O)s3)c2cc1OCCN1CCOCC1` [Example 45, 4-(3-Chloro-phenyl)-2-[5-methoxy-6-(2-morpholin-4-yl-ethoxy)-benzoimidazol-1-yl]-thiazole-5-carboxylic acid amide] showed an IC50 of 26 nM. Molecule `NC(=O)c1sc(-n2cnc3ccc(OCCCN(CCO)CCO)cc32)nc1-c1cccc(Cl)c1` [Example 35, 2-(6-{3-[Bis-(2-hydroxy-ethyl)-amino]-propoxy}-benzoimidazol-1-yl)-4-(3-chloro-phenyl)-thiazole-5-carboxylic acid amide] has an IC50 of 68 nM. Work on `CN1CCN(CCOc2ccc3ncn(-c4nc(-c5cccc(Cl)c5)c(C(N)=O)s4)c3c2)CC1` [Example 28, 4-(3-Chloro-phenyl)-2-{6-[2-(4-methyl-piperazin-1-yl)-ethoxy]-benzoimidazol-1-yl}-thiazole-5-carboxylic acid amide] yielded an IC50 of 105 nM. For `CN(CCCN1CCOCC1)Cc1ccc2ncn(-c3nc(-c4cccc(Cl)c4)c(C(N)=O)s3)c2c1` [Example 50, 4-(3-Chloro-phenyl)-2-(6-{[methyl-(3-morpholin-4-yl-propyl)-amino]-methyl}-benzoimidazol-1-yl)-thiazole-5-carboxylic acid amide], the IC50 was 85 nM. For `CN1CCN(CCCCOc2ccc3ncn(-c4nc(-c5cccc(Cl)c5)c(C(N)=O)s4)c3c2)CC1` [Example 37, 4-(3-Chloro-phenyl)-2-{6-[4-(4-methyl-piperazin-1-yl)-butoxy]-benzoimidazol-1-yl}-thiazole-5-carboxylic acid amide], the IC50 was 27 nM. Work on `NC(=O)c1sc(-n2cnc3ccc(CCCCN4CCOCC4)cc32)nc1-c1cccc(Cl)c1` [Example 41, 4-(3-Chloro-phenyl)-2-[6-(4-morpholin-4-yl-butyl)-benzoimidazol-1-yl]-thiazole-5-carboxylic acid amide] yielded an IC50 of 16 nM. Molecule `CN1CCC(C(=O)NC2CCN(Cc3ccc4ncn(-c5nc(-c6cccc(Cl)c6)c(C(N)=O)s5)c4c3)CC2)CC1` [Example 14, 1-Methyl-piperidine-4-carboxylic acid (1-{3-[5-carbamoyl-4-(3-chloro-phenyl)-thiazol-2-yl]3H-benzoimidazol-5-ylmethyl}-piperidin-4-yl)-amide] has an IC50 of 1480 nM. For `NC(=O)c1sc(-n2cnc3ccc(OCCCN4CCCC4)cc32)nc1-c1cccc(Cl)c1` [Example 34, 4-(3-Chloro-phenyl)-2-[6-(3-pyrrolidin-1-yl-propoxy)-benzoimidazol-1-yl]-thiazole-5-carboxylic acid amide], the IC50 was 50 nM. With `CN(C)CCN(C)Cc1ccc2ncn(-c3nc(-c4cccc(Cl)c4)c(C(N)=O)s3)c2c1` [Example 6, 4-(3-Chloro-phenyl)-2-(6-{[(2-dimethylamino-ethyl)-methyl-amino]-methyl}-benzoimidazol-1-yl)-thiazole-5-carboxylic acid amide] the IC50 was 500 nM. Molecule `CC(C)(N)C(=O)NC1CCN(Cc2ccc3ncn(-c4nc(-c5cccc(Cl)c5)c(C(N)=O)s4)c3c2)CC1` [Example 16, 2-{6-[4-(2-Amino-2-methyl-propionylamino)-piperidin-1-ylmethyl]-benzoimidazol-1-yl}-4-(3-chloro-phenyl)-thiazole-5-carboxylic acid amide] has an IC50 of 1290 nM.

Reference: patent US8044213B2, “Thiazolyl-benzimidazoles” (Hoffmann-La Roche Inc., priority 2008, dated 2011)
